Consider 17 molecules from patent publication US11566007B2, “Ras inhibitors” (Revolution Medicines, Inc., priority 2019, dated 2023).

For one experiment, the system named is NCI-H358 (K-Ras G12C). The experiment is described as follows: CellTiter-Glo cell viability assay, NCI-H358. The format is cell-based, human. Particulars: Homo sapiens, NCI-H358, 120 h, NCI-H358, 5-day treatment; class symbols; read-out: Additional H358 Cell Viability assay data (K-Ras G12C, IC50). Summed up:
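Luminescent viability readout on day 5 after direct compound addition to plated cells; plates sat ~30 min at room temperature before reading. Values expressed as percent of mean DMSO signal, curves fit with a four-parameter logistic model.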

Another experiment deals with NRAS WT (Homo sapiens (Human), UniProt P01111+P62937). The experiment can be described thus: Ras-Raf (BRAF RBD) disruption / FRET / MOA assay, NRAS WT. The format is biochemical. Particulars: read-out: IC50* NRAS WT FRET data. A digest of the protocol: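 Compounds (30 μM top final, 10-point 3-fold dilutions) incubated 3 h at 25° C with nucleotide-loaded Ras, cyclophilin A and BRAF RBD. Detection with 10 nM anti-His Eu-W1024 and 50 nM anti-GST allophycocyanin over another 1.5 h. Lowered TR-FRET ratio relative to DMSO wells gives IC50.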
NRAS WT, sequence (P01111 whole entry): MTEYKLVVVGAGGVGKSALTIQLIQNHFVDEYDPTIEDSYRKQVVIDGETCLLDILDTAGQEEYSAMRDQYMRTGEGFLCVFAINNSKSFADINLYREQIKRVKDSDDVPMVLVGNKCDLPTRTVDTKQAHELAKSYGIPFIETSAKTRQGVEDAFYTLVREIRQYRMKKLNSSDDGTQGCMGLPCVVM
NRAS WT, sequence (P62937 whole entry): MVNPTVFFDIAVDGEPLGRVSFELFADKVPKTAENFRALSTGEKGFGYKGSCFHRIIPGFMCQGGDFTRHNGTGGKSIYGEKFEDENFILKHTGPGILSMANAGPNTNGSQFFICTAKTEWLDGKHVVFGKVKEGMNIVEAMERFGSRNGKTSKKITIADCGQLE

For experiment [1], the system named is NCI-H358 cells (K-Ras G12C). The experiment can be described thus: Potency assay: pERK in NCI-H358 cells. Particulars: Homo sapiens, NCI-H358; H358 KRAS G12C; read-out: pERK EC50. The format is cell-based, human. Summed up:
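Compounds are dosed as ten 3-fold dilutions from a 10 mM DMSO stock, in duplicate, and left on cells for 4 h at 37 °C, 5% CO2. Phospho-ERK1/2 is then quantified by AlphaLISA SureFire Ultra or In-Cell Western, and IC50 is derived from a 4-parameter sigmoid against log concentration.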

A further experiment addresses KRAS G12V (Homo sapiens (Human), UniProt P01116+P62937, G12V). The experiment is described as follows: Ras-Raf (BRAF RBD) disruption / FRET / MOA assay, KRAS G12V. As to conditions: read-out: IC50* KRAS G12V FRET data. The format is biochemical. A digest of the protocol: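 Compound-driven ternary complex of nucleotide-loaded Ras with cyclophilin A, disrupting BRAF RBD binding. 10-point 3-fold dilution from 30 μM final, 3 h at 25° C, then anti-His Eu-W1024 (10 nM) and anti-GST allophycocyanin (50 nM) for 1.5 h. IC50 from TR-FRET ratio decrease versus DMSO.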

pEC50, pIC50: −log10 of the molar value.

KRAS G12V, sequence (P01116-2 other isoform, or with tags, fused parts or gaps G12V): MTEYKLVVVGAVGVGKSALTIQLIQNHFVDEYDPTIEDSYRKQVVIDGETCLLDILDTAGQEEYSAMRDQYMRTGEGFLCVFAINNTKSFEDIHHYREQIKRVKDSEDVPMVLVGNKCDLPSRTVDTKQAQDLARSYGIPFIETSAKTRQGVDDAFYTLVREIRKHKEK
KRAS G12V, sequence (P62937 whole entry): as the sequence (P62937 whole entry) above

A word on the pIC50: it is the negative decadic logarithm of the IC50, by convention in mol/L. One may read the pEC50 as −log10 of the EC50, conventionally taken in molar units. Consider `CCn1c(-c2cccnc2[C@H](C)OC)c2c3cc(ccc31)N1CCO[C@@H](C[C@H](NC(=O)[C@H](C(C)C)N(C)C(=O)C3(F)CCN(C(=O)/C=C/CN(C)C)CC3)C(=O)N3CCC[C@H](N3)C(=O)OCC(C)(C)C2)C1` (atropisomer, axis not shown) [Example A645], for which the pIC50 in the experiment on NCI-H358 (K-Ras G12C) is 7.00 to 8.00; at NRAS WT it was 5.00 to 6.00; on KRAS G12V, 5.00 to 6.00. Moreover, the pEC50 in experiment [1] is greater than 5.30.
Turning to `CC#CC(=O)N1CC2(CCN2C(=O)N(C)[C@H](C(=O)N[C@H]2Cc3nc(cs3)-c3ccc4c(c3)c(c(-c3cccnc3[C@H](C)OC)n4CC)CC(C)(C)COC(=O)[C@@H]3CCCN(N3)C2=O)C(C)C)C1` (atropisomer, axis not shown) [Example A655], the pIC50 is 7.00 to 8.00 in the experiment on NCI-H358 (K-Ras G12C), 6.00 to 7.00 on NRAS WT and 6.00 to 7.00 on KRAS G12V. The pEC50 in experiment [1] is greater than 5.30.
As for `C=CC(=O)N1CC[C@]2(CCN2C(=O)N(C)[C@H](C(=O)N[C@H]2Cc3nc(cs3)-c3ccc4c(c3)c(c(-c3cccnc3[C@H](C)OC)n4CC)CC(C)(C)COC(=O)[C@@H]3CCCN(N3)C2=O)C(C)C)C1` (atropisomer, axis not shown) [Example A662], the values for the pIC50 with NCI-H358 (K-Ras G12C), on NRAS WT and at KRAS G12V were 7.00 to 8.00, 6.00 to 7.00 and 6.00 to 7.00, respectively. Further, the pEC50 in experiment [1] is greater than 5.30.
Take `CCn1c(-c2cccnc2[C@H](C)OC)c2c3cc(ccc31)-c1csc(n1)C[C@H](NC(=O)[C@H](C(C)C)N(C)C(=O)N1CCCOC13CN(C(=O)C#CC(C)(C)N(C)C)C3)C(=O)N1CCC[C@H](N1)C(=O)OCC(C)(C)C2` (atropisomer, axis not shown) [Example A666]: the pIC50 in the experiment on NCI-H358 (K-Ras G12C) is 7.00 to 8.00; on NRAS WT, less than 5.00; on KRAS G12V it was less than 5.00. In addition, the pEC50 in experiment [1] was greater than 5.30.
`C=CC(=O)N1CC[C@]2(COCCN2C(=O)N(C)[C@H](C(=O)N[C@H]2Cc3nc(cs3)-c3ccc4c(c3)c(c(-c3cccnc3[C@H](C)OC)n4CC)CC(C)(C)COC(=O)[C@@H]3CCCN(N3)C2=O)C(C)C)C1` (atropisomer, axis not shown) [Example A676]: the negative-log IC50 (pIC50) with NCI-H358 (K-Ras G12C) was 7.00 to 8.00; at NRAS WT, 6.00 to 7.00; on KRAS G12V, 5.00 to 6.00. The pEC50 in experiment [1] was greater than 5.30.
With `C=CC(=O)N1CC2(CCN(C(=O)N(C)[C@H](C(=O)N[C@H]3Cc4cccc(c4)-c4ccc5c(c4)c(c(-c4cccnc4[C@H](C)OC)n5CC)CC(C)(C)COC(=O)[C@@H]4CCCN(N4)C3=O)C(C)C)CC2)C1` (atropisomer, axis not shown) [Example A680], the pIC50 in the experiment with NCI-H358 (K-Ras G12C) was 7.00 to 8.00; at NRAS WT, 6.00 to 7.00; at KRAS G12V, 6.00 to 7.00. Moreover, the pEC50 in experiment [1] is greater than 5.30.
In the case of `C=CC(=O)N1CC[C@@H]2[C@H](C1)CN2C(=O)N(C)[C@H](C(=O)N[C@H]1Cc2nc(cs2)-c2ccc3c(c2)c(c(-c2cccnc2[C@H](C)OC)n3CC)CC(C)(C)COC(=O)[C@@H]2CCCN(N2)C1=O)C(C)C` (atropisomer, axis not shown) [Example A688], the figures for the pIC50 with NCI-H358 (K-Ras G12C), at NRAS WT and at KRAS G12V were 6.00 to 7.00, 6.00 to 7.00 and 5.00 to 6.00, respectively. The negative logarithm of the EC50 (pEC50) in experiment [1] was greater than 5.30.
Turning to `C=CC(=O)N1CCC2(CCCN(C(=O)N(C)[C@H](C(=O)N[C@H]3Cc4nc(cs4)-c4ccc5c(c4)c(c(-c4cccnc4[C@H](C)OC)n5CC)CC(C)(C)COC(=O)[C@@H]4CCCN(N4)C3=O)C(C)C)C2)CC1` (atropisomer, axis not shown) [Example A696], the pIC50 with NCI-H358 (K-Ras G12C), at NRAS WT and at KRAS G12V was 6.00 to 7.00 throughout. In experiment [1], the pEC50 was greater than 5.30.
In the case of `CCn1c(-c2cccnc2[C@H](C)OC)c2c3cc(ccc31)-c1cccc(c1)C[C@H](NC(=O)[C@@H](COC1CN(C(=O)C#CC(C)(C)O)C1)C(C)C)C(=O)N1CCC[C@H](N1)C(=O)OCC(C)(C)C2` (atropisomer, axis not shown) [Example A708], the pIC50 in the experiment on NCI-H358 (K-Ras G12C) was 7.00 to 8.00; at NRAS WT, 5.00 to 6.00; at KRAS G12V, 5.00 to 6.00. Also, the pEC50 in experiment [1] was greater than 5.30.
For `CCn1c(-c2cccnc2[C@H](C)OC)c2c3cc(ccc31)-c1csc(n1)C[C@H](NC(=O)[C@H](C(C)C)N(C)C(=O)N1CCN(C(=O)/C=C/CN(C)C)C[C@@H]1C)C(=O)N1CCC[C@H](N1)C(=O)OCC(C)(C)C2` (atropisomer, axis not shown) [Example A709], the figures for the pIC50 with NCI-H358 (K-Ras G12C), on NRAS WT and on KRAS G12V were 7.00 to 8.00, 7.00 to 8.00 and 6.00 to 7.00, respectively. For the same molecule, the pEC50 in experiment [1] is greater than 5.30.
As for `CCn1c(-c2cccnc2[C@H](C)OC)c2c3cc(ccc31)-c1csc(n1)C[C@H](NC(=O)[C@H](C(C)C)N(C)C(=O)N1CC(N(C)C(=O)/C=C/CN(C)C)C1)C(=O)N1CCC[C@H](N1)C(=O)OCC(C)(C)C2` (atropisomer, axis not shown) [Example A710], the pIC50 in the experiment with NCI-H358 (K-Ras G12C) is 7.00 to 8.00; at NRAS WT, 6.00 to 7.00; on KRAS G12V, 6.00 to 7.00. Further, the pEC50 in experiment [1] was greater than 5.30.
For `C=C(OC)C(=O)N1CC(N(C)C(=O)N(C)[C@H](C(=O)N[C@H]2Cc3nc(cs3)-c3ccc4c(c3)c(c(-c3cccnc3[C@H](C)OC)n4CC)CC(C)(C)COC(=O)[C@@H]3CCCN(N3)C2=O)C(C)C)C1` (atropisomer, axis not shown) [Example A713], the pIC50 in the experiment on NCI-H358 (K-Ras G12C) is 7.00 to 8.00; at NRAS WT it was 6.00 to 7.00; on KRAS G12V, 5.00 to 6.00. Besides, the pEC50 in experiment [1] is greater than 5.30.
In the same order, the values of `C=CC(=O)N1CC[C@H](C(=O)N(C)[C@H](C(=O)N[C@H]2CN3CCC=C(C3)c3ccc4c(c3)c(c(-c3cccnc3[C@H](C)OC)n4CC)CC(C)(C)COC(=O)[C@@H]3CCCN(N3)C2=O)C(C)C)C1` (atropisomer, axis not shown) [Example A716, (3S)-1-acryloyl-N-((2S)-1-(((6^3S,4S)-1^1-ethyl-1^2-(2-((S)-1-methoxyethyl)pyridin-3-yl)-10,10-dimethyl-5,7-dioxo-2^1,2^2,2^3,2^6,6^1,6^2,6^3,6^4,6^5,6^6-decahydro-1^1H-8-oxa-1(5,3)-indola-6(1,3)-pyridazina-2(5,1)-pyridinacycloundecaphane-4-yl)amino)-3-methyl-1-oxobutan-2-yl)-N-methylpyrrolidine-3-carboxamide] are 7.00 to 8.00, 5.00 to 6.00, 5.00 to 6.00 and greater than 5.30.
`CCn1c(-c2cccnc2[C@H](C)OC)c2c3cc(ccc31)-c1nc(nn1C)C[C@H](NC(=O)[C@@H](COC1CN(C(=O)C#CC(C)(C)N(C)C)C1)C(C)C)C(=O)N1CCC[C@H](N1)C(=O)OCC(C)(C)C2` (atropisomer, axis not shown) [Example A720, (2R)-2-(((1-(4-(dimethylamino)-4-methylpent-2-ynoyl)azetidin-3-yl)oxy)methyl)-N-((6^3S,4S,Z)-1^1-ethyl-1^2-(2-((S)-1-methoxyethyl)pyridin-3-yl)-2^1,10,10-trimethyl-5,7-dioxo-6^1,6^2,6^3,6^4,6^5,6^6-hexahydro-1^1H,2^1H-8-oxa-1(5,3)-indola-6(1,3)-pyridazina-2(5,3)-triazolacycloundecaphane-4-yl)-3-methylbutanamide]: the results for the pIC50 in the experiment with NCI-H358 (K-Ras G12C), at NRAS WT and on KRAS G12V were 7.00 to 8.00, 5.00 to 6.00 and 5.00 to 6.00, respectively. In addition, the pEC50 in experiment [1] was greater than 5.30.
`C=CC(=O)N1CCC(F)(C(=O)N(C)[C@H](C(=O)N[C@H]2C[C@H]3CN(CCO3)c3ccc4c(c3)c(c(-c3cccnc3[C@H](C)OC)n4CC)CC(C)(C)COC(=O)[C@@H]3CCCN(N3)C2=O)C(C)C)CC1` (atropisomer, axis not shown) [Example A722, 1-acryloyl-N-((2S)-1-(((6^3S,4S)-1^1-ethyl-1^2-(2-((S)-1-methoxyethyl)pyridin-3-yl)-10,10-dimethyl-5,7-dioxo-6^1,6^2,6^3,6^4,6^5,6^6-hexahydro-1^1H-8-oxa-2(4,2)-morpholina-1(5,3)-indola-6(1,3)-pyridazinacycloundecaphane-4-yl)amino)-3-methyl-1-oxobutan-2-yl)-4-fluoro-N-methylpiperidine-4-carboxamide]: the pIC50 in the experiment on NCI-H358 (K-Ras G12C) is 7.00 to 8.00; at NRAS WT, 6.00 to 7.00; on KRAS G12V, 5.00 to 6.00. Moreover, the pEC50 in experiment [1] is greater than 5.30.
For `C=CC(=O)N1CC(OC[C@H](C(=O)N[C@H]2C[C@H]3CN(CCO3)c3ccc4c(c3)c(c(-c3cccnc3[C@H](C)OC)n4CC(F)(F)F)CC(C)(C)COC(=O)[C@@H]3CCCN(N3)C2=O)C(C)C)C1` (atropisomer, axis not shown) [Example A723], the results for the pIC50 in the experiment on NCI-H358 (K-Ras G12C), on NRAS WT and at KRAS G12V were 7.00 to 8.00, 5.00 to 6.00 and 5.00 to 6.00, respectively. The pEC50 in experiment [1] was greater than 5.30.
With `CCn1c(-c2cccnc2[C@H](C)OC)c2c3cc(ccc31)-c1csc(n1)C[C@H](NC(=O)[C@H](C(C)C)N(C)C(=O)N(C)C1CN(C(=O)/C=C/[C@H]3CCCN3C)C1)C(=O)N1CCC[C@H](N1)C(=O)OCC(C)(C)C2` (atropisomer, axis not shown) [Example A729], the negative-log IC50 (pIC50) in the experiment with NCI-H358 (K-Ras G12C) was 6.00 to 7.00; at NRAS WT, 6.00 to 7.00; on KRAS G12V it was 5.00 to 6.00. In addition, the pEC50 in experiment [1] was greater than 5.30.
